# In patent publication US20100093536A1, “CONTROL OF GRASSY WEEDS WITH VINYLGLYCINES AND VINYLGLYCINE-PRODUCING ORGANISMS” (THE STATE OF OREGON ACTING BY AND THROUGH THE STATE BOARD …, priority 2008, published 2010):
# Test system: Poa annua (annual bluegrass) seeds
# Assay: Standard GAF Bioassay System (Standard Poa Bioassay), seed germination scored after 7 days
# Type: in vivo
# Parameters: key to GERMINATION SCORE IN THE POA BIOASSAY (±Standard Error of the Mean) / GERMINATION SCORE (±Standard Error of the Mean): germination score, 0 = no germination to 4.0 = first true leaf emerged
# Details: for reversal of the effects of GAF by amino acids, in words: in presence of WH6 culture filtrate; for toxicity of trace metal in the Poa bioassay, in words: higher concentrations tested (up to 200 μM)
# Procedure: The seed of Poa annua (or other test seeds) were surface-sterilized by placing two to five grams of seeds in a 50 ml glass beaker, covering the seeds with a 50% (v/v) solution of H2SO4, and stirring vigorously for 5 minutes. The seed/acid mixture was filtered through a Gooch crucible and repeatedly rinsed with tap water to remove residual acid. The seeds were then placed in a beaker and covered with bleach (Clorox®, NaOCl, 5.25%) containing 1% (v/v) polyoxethylene sorbitan monolaurate (Tween®-20). The seeds were stirred for 5 minutes and then repeatedly rinsed with sterile deionized water and placed in a sterile Petri dish. The seeds were used immediately while wet or dried (spread in a thin layer and allowed to dry under a laminar flow hood with the Petri dish lid ajar for 4 to 8 hours) to prevent premature germination.
# Bioassays for GAF activity were performed with Poa annua (annual bluegrass) seeds unless otherwise indicated. For each concentration of each test solution, 200 μl aliquots of solution were distributed to each of three wells of a sterile Costar® forty-eight well tissue culture plate (Corning® Costar® Number 3548). Three surface-sterilized Poa annua seeds were aseptically transferred to each well and submerged in the liquid, providing a total of nine observations for each concentration of each solution tested. The lid of the tissue culture plate was sealed with Parafilm® and the plate was placed in a germinator at 20° C. (8 hour day length at a light intensity of 50 μmol/m^2/s, 16 hour dark period) for seven days. Germination was scored on the basis of the following four-point system: • Score 0: No visible signs of germination. • Score 0.5: Seed coat split but plumule and coleorhiza are not visible. • Score 1.0: Plumule and coleorhiza visible. Plumule chlorotic and shorter than length of seed. Root not yet visible. • Score 1.5: Plumule still shorter than length of seed, but root is clearly visible. • Score 2.0: Plumule approximately equal in length to the seed. Root elongated. • Score 2.5: Plumule obviously longer than length of seed. First true leaf still enclosed in coleoptile. • Score 3.0: First true leaf emerged from coleoptile and green. Emerged portion of the leaf is obviously shorter than the coleoptile. • Score 3.5: First true leaf emerged from coleoptile and green. Emerged portion of the leaf is approximately equal in length to the coleoptile. • Score 4.0: First true leaf emerged from coleoptile and green. Emerged portion of the leaf is obviously longer than the coleoptile.
# [1] = WH6 culture filtrate 0, amino acid 0.3 mM
# [2] = WH6 culture filtrate 0, amino acid 1 mM
# [3] = WH6 culture filtrate 0, amino acid 3 mM
# [4] = WH6 culture filtrate 0, amino acid 10 mM
# [5] = WH6 culture filtrate 0, amino acid 30 mM
# [6] = WH6 culture filtrate 0.1X plus amino acid 0.3 mM
# [7] = WH6 culture filtrate 0.1X plus amino acid 1 mM
# [8] = WH6 culture filtrate 0.1X plus amino acid 3 mM
# [9] = WH6 culture filtrate 0.1X plus amino acid 10 mM
# [10] = WH6 culture filtrate 0.1X plus amino acid 30 mM
# [11] = GAF Conc. 0, metal 12.5 μM, score 4.0 = normal germination, 1.0 = arrest
# [12] = GAF Conc. 2X plus metal 12.5 μM
Compound,POA BIOASSAY SCORES (±Standard Error of the Mean) [11],"POA BIOASSAY SCORES (±Standard Error of the Mean) (GAF Conc. 0, metal 25 μM)","POA BIOASSAY SCORES (±Standard Error of the Mean) (GAF Conc. 0, metal 50 μM)","POA BIOASSAY SCORES (±Standard Error of the Mean) (GAF Conc. 0, metal 100 μM)","POA BIOASSAY SCORES (±Standard Error of the Mean) (GAF Conc. 0, metal 200 μM)",POA BIOASSAY SCORES (±Standard Error of the Mean) [12],POA BIOASSAY SCORES (±Standard Error of the Mean) (GAF Conc. 2X plus metal 25 μM),POA BIOASSAY SCORES (±Standard Error of the Mean) (GAF Conc. 2X plus metal 50 μM),POA BIOASSAY SCORES (±Standard Error of the Mean) (GAF Conc. 2X plus metal 100 μM),POA BIOASSAY SCORES (±Standard Error of the Mean) (GAF Conc. 2X plus metal 200 μM),further results
C[C@H](N)C(=O)O [Alanine],,,,,,,,,,,"GERMINATION SCORE (±Standard Error of the Mean) [1]: 4.0 ± 0.0; GERMINATION SCORE (±Standard Error of the Mean) [2]: 3.9 ± 0.1; GERMINATION SCORE (±Standard Error of the Mean) [3]: 4.0 ± 0.0; GERMINATION SCORE (±Standard Error of the Mean) [4]: 3.9 ± 0.1; GERMINATION SCORE (±Standard Error of the Mean) [5]: 3.2 ± 0.1; GERMINATION SCORE (±Standard Error of the Mean) [6]: 1.9 ± 0.1; GERMINATION SCORE (±Standard Error of the Mean) [7]: 3.3 ± 0.1; GERMINATION SCORE (±Standard Error of the Mean) [8]: 4.0 ± 0.0; GERMINATION SCORE (±Standard Error of the Mean) [9]: 4.0 ± 0.0; GERMINATION SCORE (±Standard Error of the Mean) [10]: 4.0 ± 0.0; reversal of the effects of GAF by amino acids, in words: most effective"
[Ca+2].[Cl-].[Cl-] [CaCl2],4.00 ± 0.00,4.00 ± 0.00,4.00 ± 0.00,4.00 ± 0.00,4.00 ± 0.00,1.00 ± 0.00,1.00 ± 0.00,1.00 ± 0.00,1.00 ± 0.00,1.00 ± 0.00,
[Cu] [Copper],,,,,,,,,,,"toxicity of trace metal in the Poa bioassay, in words: completely inhibiting germination"
[Cl][Cu][Cl] [CuCl2],3.3 ± 0.17,2.9 ± 0.04,1.2 ± 0.27,0.30 ± 0.28,0.00 ± 0.00,1.00 ± 0.00,2.58 ± 0.06,3.94 ± 0.06,2.97 ± 0.03,2.69 ± 0.09,
O=S(=O)([O-])[O-].[Cu+2] [CuSO4],3.5 ± 0.00,3.00 ± 0.00,1.11 ± 0.11,0.00 ± 0.00,0.00 ± 0.00,1.00 ± 0.00,1.00 ± 0.00,1.00 ± 0.00,3.00 ± 0.00,0.00 ± 0.00,
O=S(=O)([O-])[O-].[Fe+2] [FeSO4],4.00 ± 0.00,3.50 ± 0.13,3.00 ± 0.00,2.86 ± 0.44,2.47 ± 0.07,1.00 ± 0.00,1.00 ± 0.00,1.00 ± 0.00,1.00 ± 0.00,1.00 ± 0.00,
NC(=O)CC[C@H](N)C(=O)O [Glutamine],,,,,,,,,,,"GERMINATION SCORE (±Standard Error of the Mean) [1]: 4.0 ± 0.0; GERMINATION SCORE (±Standard Error of the Mean) [2]: 4.0 ± 0.0; GERMINATION SCORE (±Standard Error of the Mean) [3]: 3.7 ± 0.3; GERMINATION SCORE (±Standard Error of the Mean) [4]: 3.7 ± 0.3; GERMINATION SCORE (±Standard Error of the Mean) [5]: 4.0 ± 0.0; GERMINATION SCORE (±Standard Error of the Mean) [6]: 1.4 ± 0.1; GERMINATION SCORE (±Standard Error of the Mean) [7]: 1.8 ± 0.2; GERMINATION SCORE (±Standard Error of the Mean) [8]: 3.5 ± 0.3; GERMINATION SCORE (±Standard Error of the Mean) [9]: 4.0 ± 0.0; GERMINATION SCORE (±Standard Error of the Mean) [10]: 4.0 ± 0.0; reversal of the effects of GAF by amino acids, in words: most effective"
[Fe] [Iron],,,,,,,,,,,"toxicity of trace metal in the Poa bioassay, in words: slight toxicity"
CC(C)C[C@H](N)C(=O)O [Leucine],,,,,,,,,,,GERMINATION SCORE (±Standard Error of the Mean) [1]: 3.9 ± 0.2; GERMINATION SCORE (±Standard Error of the Mean) [2]: 4.0 ± 0.0; GERMINATION SCORE (±Standard Error of the Mean) [3]: 3.6 ± 0.2; GERMINATION SCORE (±Standard Error of the Mean) [4]: 3.0 ± 0.0; GERMINATION SCORE (±Standard Error of the Mean) [5]: 1.7 ± 0.1; GERMINATION SCORE (±Standard Error of the Mean) [6]: 1.5 ± 0.0; GERMINATION SCORE (±Standard Error of the Mean) [7]: 1.5 ± 0.3; GERMINATION SCORE (±Standard Error of the Mean) [8]: 3.6 ± 0.1; GERMINATION SCORE (±Standard Error of the Mean) [9]: 3.4 ± 0.1; GERMINATION SCORE (±Standard Error of the Mean) [10]: 2.8 ± 0.1
[Cl][Ni][Cl] [NiCl2],2.78 ± 0.05,2.47 ± 0.10,1.78 ± 0.09,1.44 ± 0.06,1.00 ± 0.00,1.00 ± 0.00,1.00 ± 0.00,1.00 ± 0.00,1.00 ± 0.00,1.00 ± 0.00,
[Cl-].[Cl-].[Zn+2] [ZnCl2],4.00 ± 0.00,4.00 ± 0.00,4.00 ± 0.00,3.5 ± 0.00,3.00 ± 0.00,1.00 ± 0.00,1.00 ± 0.00,1.00 ± 0.00,1.00 ± 0.00,1.00 ± 0.00,
